Test results from US9353149B2, “Compounds, compositions and methods for the treatment of diseases through inhibiting TGF-β activity” (Southern Research Institute, priority 2013, dated 2016).
Marks after values point to notes of the source that are not given here. Residues, ends and D or L forms follow the SMILES beside them.

What was measured:
[1] = target: Recombinant latent TGF-beta incubated with TSP1 (Homo sapiens, UniProt P07996); test: TSP1 activation of recombinant latent TGF-beta, ELISA specific for active TGF-beta; assay type: biochemical; details: latent TGF-beta 500 pM, TSP1 48 nM, compounds 1-100 pM; read-out: Activity (IC 50)
Chain of Recombinant latent TGF-beta incubated with TSP1 (P07996 19-1170): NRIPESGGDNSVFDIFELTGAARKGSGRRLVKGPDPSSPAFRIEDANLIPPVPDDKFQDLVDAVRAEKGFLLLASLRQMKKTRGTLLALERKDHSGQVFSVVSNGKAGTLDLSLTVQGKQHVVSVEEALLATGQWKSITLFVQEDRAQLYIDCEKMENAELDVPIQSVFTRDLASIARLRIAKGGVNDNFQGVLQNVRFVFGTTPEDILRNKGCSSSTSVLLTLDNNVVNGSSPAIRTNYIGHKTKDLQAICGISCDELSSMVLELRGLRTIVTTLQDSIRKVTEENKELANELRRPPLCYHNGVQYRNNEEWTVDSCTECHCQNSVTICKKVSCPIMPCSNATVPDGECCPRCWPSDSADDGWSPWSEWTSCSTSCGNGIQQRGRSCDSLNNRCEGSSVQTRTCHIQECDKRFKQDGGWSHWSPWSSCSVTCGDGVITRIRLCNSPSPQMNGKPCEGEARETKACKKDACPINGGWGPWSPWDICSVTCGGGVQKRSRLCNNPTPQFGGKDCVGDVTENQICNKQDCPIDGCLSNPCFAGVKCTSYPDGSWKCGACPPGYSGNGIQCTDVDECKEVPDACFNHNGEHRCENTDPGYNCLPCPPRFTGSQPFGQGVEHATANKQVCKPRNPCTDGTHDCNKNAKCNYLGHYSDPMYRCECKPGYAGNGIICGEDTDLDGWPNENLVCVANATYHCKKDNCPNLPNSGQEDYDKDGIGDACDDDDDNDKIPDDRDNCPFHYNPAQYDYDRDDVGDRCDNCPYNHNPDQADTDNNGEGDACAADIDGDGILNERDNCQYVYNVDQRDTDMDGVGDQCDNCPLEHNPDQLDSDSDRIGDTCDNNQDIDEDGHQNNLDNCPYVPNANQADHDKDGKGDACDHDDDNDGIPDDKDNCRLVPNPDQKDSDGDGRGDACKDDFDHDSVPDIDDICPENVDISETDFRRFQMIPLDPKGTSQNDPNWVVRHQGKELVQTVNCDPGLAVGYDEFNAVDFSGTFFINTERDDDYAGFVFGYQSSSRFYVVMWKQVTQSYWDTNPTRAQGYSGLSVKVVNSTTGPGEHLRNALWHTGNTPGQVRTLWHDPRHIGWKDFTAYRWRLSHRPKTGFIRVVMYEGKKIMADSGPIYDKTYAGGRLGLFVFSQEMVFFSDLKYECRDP
Method: The assay for the IC 50 (Activity) data in Table 1 was as follows: Recombinant latent TGF-beta (500 pM) is incubated with TSP1 (48 nM) in the absence or presence of increasing concentrations of the identified compounds (1-100 pM). TGF-beta activity in the samples was measured using an ELISA specific for active TGF-beta (R&D Systems). IC50 values were calculated from the curves.

[2] = system: human CAG-heparanase myeloma cells; test: Systemic SCID-CAG-heparanase multiple myeloma model; assay type: in vivo, Male SCID mice; details: for Human serum κ / IL-6 / Serum TRAcP 5b: osmotic pump, 4 weeks
Method: The Table 2 below provides an analysis of the systemic SCID-CAG-heparanase model treated with increasing doses of Compound No 1 according to the present invention.
Table 2: Analyses of the Systemic SCID-CAG-Heparanase Model Treated with Increasing Doses of Compound No 1
Male SCID mice were injected via tail vein with 1.7×10^6 CAG-hpse cells and tumors allowed to establish over 2 weeks. Groups were randomized according to serum human kappa levels (n=15/group). Treatments were initiated at 2 weeks and continued for 4 weeks. Mice were treated with either saline or 0.3, 3.0, or 30 mg/kg/day of Compound No 1 peptide delivered by osmotic pumps. Pumps were replaced after 2 weeks and fresh peptide and pumps installed. *p<0.05 vs saline.

[3] = Plasma pharmacokinetics after single intravenous and oral administration; assay type: in vivo, male Swiss Albino mice
[4] = Plasma stability half-life; assay type: in vitro ADME
Excerpt: Peptides comprising the amino acid sequence LSKL, including the tetrapeptide LSKL, for inhibiting TGF-β activity and the use of these peptides and certain functional derivatives thereof for the treatment of kidney disease are described in U.S. Pat. No. 6,384,189 and U.S. Pat. No. 6,458,767. It is desirable to employ small molecules such as, e.g., LSKL because they are easier to synthesize and, thus, less costly. […] Accordingly, there is a need for small molecules which affect the activation of TGF-β and which also have an extended plasma stability half-life.

TSP1-TGF-β activation = details: cited from earlier work
[5] = male, Swiss Albino, mouse, iv, 1 mg/kg
[6] = male, Swiss Albino, mouse, po, 3 mg/kg

## CC(=O)N[C@@H](CO)C(=O)N[C@@H](CCCCN)C(=O)N[C@@H](CC(C)C)C(N)=O [Compound 1] (Ac-Ser-Lys-Leu-NH2)
[1]
  IC50: 0.001 to 0.01 nM
[2]; 0.3 mg/kg/day
  Human serum κ: 5134 ± 696 ng/mL
  IL-6: 70.2 ± 4.7 pg/mL
  Serum TRAcP 5b: 3.6 +/− 0.28 U/L
[2]; 3.0 mg/kg/day
  Human serum κ: 3465 +/− 422* ng/ml
  IL-6: 40.0 +/− 4.2* pg/ml
  Serum TRAcP 5b: 2.8 +/− 0.15* U/L
[2]; 30 mg/kg dose, SCID/CAG-hpse MM model
  tibial bone loss (FIG. 1): reducing tibial bone loss
[2]; 30 mg/kg/day
  TRAP^+ OC/mm BS: 1.0 +/− 0.2*
  p-Smad 2 IHC in bone marrow: 2390 +/− 472* arbitrary units
  Human serum κ: 2593 +/− 443* ng/ml
  IL-6: 31.8 +/− 4.0* pg/ml
  Serum TRAcP 5b: 2.5 +/− 0.13* U/L
[2]; 30 mg/kg/day, n = 4
  μCT (tibia) BV/TV: 0.13 +/− 0.01*
  μCT (tibia) TbN: 4.03 +/− 0.28*
  μCT (tibia) TbSp: 0.25 +/− 0.02*
[3]; i.v., 1 mg/kg
  Co: 1025.73 ng/mL
[3]; [5]
  AUC(0-inf): 1380 ng·h/mL
  AUC(0-t): 1210 ng·h/mL
  clearance: 12.1 mL/min/kg
  half-life: 637 min
[3]; male, Swiss Albino, mouse, iv, 1 mg/kg, read-out: Vss
  Vd: 6.31 L/kg
[3]; male, Swiss Albino, mouse, oral 3 mg/kg vs i.v. 1 mg/kg
  bioavailability: 24%
[3]; [6]
  AUC(0-inf): 1070 ng·h/mL
  AUC(0-t): 875 ng·h/mL
  Cmax: 208 ng/mL
  Tmax: 30 min

## CC(=O)N[C@H](C(=O)N[C@@H](CCCCN)C(=O)N[C@@H](CC(C)C)C(N)=O)C(C)O (some centres unmarked) [Compound 2] (HELM PEPTIDE1{[ac].[CC(O)[C@H](N[*:1])C(=O)[*:2]].K.L.[am]}$$$$V2.0)
[1]
  IC50: 0.05 to 0.1 nM

## CC(=O)N[C@@H](CO)C(=O)N[C@@H](CCCCN)C(=O)N(C)[C@@H](CC(C)C)C(N)=O [Compound 10] (HELM PEPTIDE1{[ac].S.K.[meL].[am]}$$$$V2.0)
[1]
  IC50: 0.1 to 0.5 nM

## CNC(=O)[C@H](CC(C)C)NC(=O)[C@H](CCCCN)NC(=O)[C@H](CO)NC(C)=O [Compound 13] (HELM PEPTIDE1{[ac].S.K.L.[CN[*:1]]}$$$$V2.0)
[1]
  IC50: 0.05 to 0.1 nM

## CNC(=O)[C@H](CC(C)C)NC(=O)[C@@H](CCCCN)NC(=O)[C@@H](NC(C)=O)C(C)O (some centres unmarked) [Compound 14] (HELM PEPTIDE1{[ac].[CC(O)[C@H](N[*:1])C(=O)[*:2]].[dK].L.[CN[*:1]]}$$$$V2.0)
[1]
  IC50: 0.001 to 0.01 nM

## CC(=O)N[C@@H](CO)C(=O)N[C@@H](CCCCN(C)C)C(=O)N[C@@H](CC(C)C)C(N)=O [Compound 22] (HELM PEPTIDE1{[ac].S.[CN(C)CCCC[C@H](N[*:1])C(=O)[*:2]].L.[am]}$$$$V2.0)
[1]
  IC50: 0.1 to 0.5 nM

## CC(=O)N[C@@H](CO)C(=O)N[C@@H](CCCCN)C(=O)N[C@@H](CC1CC1)C(N)=O [Compound 37] (HELM PEPTIDE1{[ac].S.K.[O=C([C@H](CC1CC1)N[*:1])[*:2]].[am]}$$$$V2.0)
[1]
  IC50: 0.05 to 0.1 nM

## CC(=O)N[C@H](CO)C(=O)N[C@@H](CCCCN)C(=O)N[C@@H](CC(C)C)C(N)=O [Compound 94] (HELM PEPTIDE1{[ac].[dS].K.L.[am]}$$$$V2.0)
[1]
  IC50: 0.1 to 0.5 nM

## CC(=O)N[C@@H](CO)C(=O)N[C@H](CCCCN)C(=O)N[C@@H](CC(C)C)C(N)=O [Compound 95] (HELM PEPTIDE1{[ac].S.[dK].L.[am]}$$$$V2.0)
[1]
  IC50: 0.001 to 0.01 nM

## CC(=O)N[C@@H](CO)C(=O)N[C@@H](CCCCN)C(=O)N[C@H](CC(C)C)C(N)=O [Compound 96] (HELM PEPTIDE1{[ac].S.K.[dL].[am]}$$$$V2.0)
[1]
  IC50: 0.05 to 0.1 nM

## CC(=O)N[C@@H](CO)C(=O)N[C@@H](CCCCN)C(=O)N[C@@H](CC(C)C)C(=O)N(C)C [Compound 97] (HELM PEPTIDE1{[ac].S.K.L.[CN(C)[*:1]]}$$$$V2.0)
[1]
  IC50: 0.1 to 0.5 nM

## CNCCCC[C@H](NC(=O)[C@H](CO)NC(C)=O)C(=O)N[C@@H](CC(C)C)C(N)=O [Compound 98] (HELM PEPTIDE1{[ac].S.[CNCCCC[C@H](N[*:1])C(=O)[*:2]].L.[am]}$$$$V2.0)
[1]
  IC50: 0.1 to 0.5 nM

## CC(=O)NCCCC[C@H](NC(=O)[C@H](CO)NC(C)=O)C(=O)N[C@@H](CC(C)C)C(N)=O [Compound 99] (Ac-Ser-Lys(Ac)-Leu-NH2)
[1]
  IC50: 0.1 to 0.5 nM

## COC[C@H](NC(C)=O)C(=O)N[C@@H](CCCCN)C(=O)N[C@@H](CC(C)C)C(N)=O [Compound 100] (Ac-Ser(Me)-Lys-Leu-NH2)
[1]
  IC50: 0.1 to 0.5 nM

## CCC(=O)N[C@@H](CO)C(=O)N[C@@H](CCCCN)C(=O)N[C@@H](CC(C)C)C(N)=O [Compound 101] (HELM PEPTIDE1{[CCC(=O)[*:2]].S.K.L.[am]}$$$$V2.0)
[1]
  IC50: 0.1 to 0.5 nM

## CC(C)C[C@H](NC(=O)[C@H](CCCCN)NC(=O)[C@H](CO)NC(=O)[C@@H](N)CC(C)C)C(=O)O [LSKL, leucine-serine-lysine-leucine] (H-LSKL-OH; N-terminus and C-terminus assumed)
[4]
  half-life: 2.1 min
TSP1-TGF-β activation; after 15 weeks of 30 mg/kg i.p., 3 times weekly
  necropsy findings: no inflammation, no tumors in all major organs, and no impairment of wound healing
TSP1-TGF-β activation; systemic administration, diabetic mice
  Smad signaling and dermal wound healing: did not reduce Smad signaling or impair dermal wound healing
